Legend:
NOX2 = target: T1, NOX2 (Homo sapiens, UniProt P14598); assay: NADPH oxidase (NOX2) inhibition, DCF fluorescence in PMA-activated neutrophil-differentiated HL-60 cells; format: cell-based; conditions: for inhibition of NOX2-derived ROS production (in words): PMA-activated HL-60 cells, 0.05 µM to 50 µM; for IC50: neutrophil-differentiated HL-60 cells, PMA 0.8 µM, DCF fluorescence, 0.05 to 50 µM
T1 construct: HL-60 cells expressed the components of NOX2, including gp91, p22^phox, p47^phox, and p67^phox; endogenous in cells; whole cells in A1, membrane preparations in A3 and A4
T1 sequence (P14598 1-390): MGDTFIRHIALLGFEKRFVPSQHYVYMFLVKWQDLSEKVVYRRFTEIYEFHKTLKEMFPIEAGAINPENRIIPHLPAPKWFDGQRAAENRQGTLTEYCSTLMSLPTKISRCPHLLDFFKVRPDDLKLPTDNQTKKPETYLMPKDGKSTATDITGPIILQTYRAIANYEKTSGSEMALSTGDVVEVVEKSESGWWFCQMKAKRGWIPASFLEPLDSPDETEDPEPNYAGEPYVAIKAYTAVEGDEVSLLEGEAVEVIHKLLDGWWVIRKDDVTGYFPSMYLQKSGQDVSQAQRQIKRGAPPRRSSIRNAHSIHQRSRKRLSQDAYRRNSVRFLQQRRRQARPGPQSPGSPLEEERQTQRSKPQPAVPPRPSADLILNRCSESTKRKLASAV
Method: The differentiation of HL-60 cells to neutrophils was performed after reaching a concentration of between 2 × 10^6 and 5 × 10^6 cells/mL in the differentiation medium: RPMI 1640 medium; 10% FBS; 100 IU/mL of penicillin/streptomycin; and 1.3% DMSO for 7 days, replenishing the differentiation medium every 2 days.
The 2′,7′-dichlorofluorescein (DCF) fluorescence analysis was used to determine NADPH oxidase activity in neutrophil-differentiated HL-60 cells. The method, based on a fluorimetric assay, was adapted from Boly et al.. Briefly, 1 × 10^6 neutrophil-differentiated HL-60 cells/mL were incubated for 45 min. at 37 °C in darkness with DCF-DA (1 mg/mL). The cell suspension was then transferred to a 15 mL conical tube and centrifuged at 330× g × 10 min at 37 °C. After the supernatant was removed, the cells were re-suspended in Hanks balanced saline buffer (HBSS, Sigma-Aldrich, St. Louis, MO, USA) and transferred to dark 96-well plates with a flat glass bottom (Thermo Scientific Nunc 96 microwell® black, Optical Botton # 1.5 Cover Glass Base, Thermo Fisher Scientific). Then, 200 μL of cell suspension per well were incubated at 37 °C for 30 min with the indole heteroaryl-acrylonitriles at increasing concentrations (0.05 to 50 μM). […] Finally, PMA (0.8 μM) was added to each well for 10 min. to generate the activation of NOX2. The generation of the DCF fluorescence product was monitored in an automatic microplate reader (FLx800, BioTek Instruments, Winooski, VT, USA) at 1-min intervals at 37 °C for 1 h, using an excitation wavelength of 485 nm and an emission wavelength of 555 nm. The ability to inhibit ROS production by activated neutrophil-differentiated HL-60 cells was compared against the different controls. A control was performed with cells activated by PMA in the presence of DMSO and established as having 100% of the ROS-induced fluorescence. Inhibition control was performed in the presence of VAS2870 (20 µM) and activated by PMA. Another control (NA, not activated) was done with cells in the absence of PMA and the indole heteroaryl-acrylonitriles.
All the experiments were performed in triplicate, using three different cell preparations, and the data were reported as mean ± s.e.m. For the determination of the IC50 of the indole heteroaryl-acrylonitriles, concentration-response curves (0.05 to 50 μM) were constructed. IC50 values were given as the mean ± standard deviation for at least three independent assays. The data were analyzed using one- and two-way ANOVA. A value of p < 0.05 was considered statistically significant. Statistical analyses were performed using the program GraphPad Prism® version 6.00, San Diego, CA, USA.

NADPH oxidase (NOX2) = target: T2, NADPH oxidase (NOX2) (Homo sapiens, UniProt P14598); assay: NADPH oxidase activity by lucigenin chemiluminescence in HL-60 membrane preparations; format: biochemical; conditions: PMA 0.8 µM, compound 50 µM, vs control
T2 construct: HL-60 cells expressed the components of NOX2, including gp91, p22^phox, p47^phox, and p67^phox; endogenous in cells; whole cells in A1, membrane preparations in A3 and A4
T2 sequence (P14598 1-390): T1 sequence (P14598 1-390)
Method: Neutrophil-differentiated HL-60 cells (2 × 10^6 cells/mL) were incubated at 37 °C in a humid atmosphere with 5% CO2 and 50 μM of the different acrylonitrile compounds, then PMA 0.8 μM was added and incubated for 1 h to induce the activation of the enzyme NADPH oxidase. As a positive inhibition control, VAS2870 (20 μM) was used. Another two controls were performed: one with cells activated by PMA in the presence of DMSO, and the other (NA, non-activated) with cells in the absence of PMA and the acrylonitrile compounds. In 15 mL conical tubes, 5 mL of cell suspension from each treatment and control condition was transferred at 2 × 10^6 cells/mL and centrifuged at 1000 rpm at 4 °C for 10 min. The supernatant was then discarded, and each pellet was re-suspended in 2 mL of a 4% PBS solution with 2 mM EGTA and 0.25 mM PMSF frozen at −80 °C for 10 min. Then each pellet was thawed on ice. […]
The chemiluminescence analysis of lucigenin derivatives was used to determine the activity of NADPH oxidase in a suspension of membrane preparations of HL-60 cells. […] Chemiluminescence was measured for 1 h at 2 min intervals with a Synnergy H1 hybrid luminometer multi-mode microplate reader and GEN5 program (Biotek Instruments, Inc., Winooski, VT, USA). […] The activity was expressed as relative units of luminescence per second, relative to the control.

Row | IC50 (NOX2) [µM] | ROS production, lucigenin chemiluminescence (in words) (NADPH oxidase (NOX2)) | SMILES | inhibition of NOX2-derived ROS production (in words) (NOX2)
1 | 1.1 ± 0.2 | significantly reduce ROS production | N#C/C(=C\c1cc(-c2ccccc2)on1)C(=O)c1c[nH]c2ccccc12 [Compound C6] | exhibited concentration-dependent inhibition of NOX2
2 | 3.6 ± 0.2 | significantly reduce ROS production | N#C/C(=C\c1ccncc1)C(=O)c1c[nH]c2ccccc12 [Compound C14] | exhibited concentration-dependent inhibition of NOX2
